The text below walks through data of publication PMC4728427, “Mechanism of allosteric activation of TMEM16A/ANO1 channels by a commonly used chloride channel blocker” (British Journal of Pharmacology, 2016).

The structures appear in SMILES notation.

The Ki is the dissociation constant of the complex between target and ligand, obtained from inhibition or displacement.

Assay [1] concerns non‐transfected HEK‐293T cells. As to the kind of experiment: Whole-cell endogenous currents in non-transfected cells with extracellular A9C. It is filed as cell-based. The settings on record: +100 mV, 3000 μM [A9C]ext; without A9C 3.6 ± 0.8. How it is done: Current versus V m relationships were constructed by measuring currents in response to 1 s V m steps (test pulses) from −100 to +100 mV in 40 mV increments (unless stated otherwise) after a 1 s V m step to +70 mV (pre‐pulse). Pulses were elicited every 2 s from a holding V m of 0 mV. Steady‐state currents were measured at the end of the test pulses. As detailed in the Results, in the presence of 300 nM [Ca^2+]i and extracellular A9C, the test‐pulse currents reached a peak within the first ~50 ms of the test pulse. These peak currents were also measured and plotted against the V m of the test pulse. Current density was obtained by dividing the current amplitude for the cell capacitance.
To test the possibility that A9C activated endogenous currents in HEK‐293T cells, the effect of [A9C]ext (3000 μM) on non‐transfected cells was assessed. No significant increase in current was observed relative to the small endogenous currents measured in non‐transfected cells in the absence of [A9C]ext (Figure 1A). For example, at +100 mV, the current recorded from non‐transfected HEK‐293T cells in the absence and presence of 3000 μM [A9C]ext was 3.6 ± 0.8 pA∙pF^−1 (n = 6) and 3.7 ± 0.7 pA∙pF^−1 (n = 6) respectively.

The target of assay [2] is T1, Mouse TMEM16A (Mus musculus, UniProt Q8BHY3).
T1 construct: expressed in transfected cells; host or cells: HEK-293T
T1 sequence (Q8BHY3 1-960): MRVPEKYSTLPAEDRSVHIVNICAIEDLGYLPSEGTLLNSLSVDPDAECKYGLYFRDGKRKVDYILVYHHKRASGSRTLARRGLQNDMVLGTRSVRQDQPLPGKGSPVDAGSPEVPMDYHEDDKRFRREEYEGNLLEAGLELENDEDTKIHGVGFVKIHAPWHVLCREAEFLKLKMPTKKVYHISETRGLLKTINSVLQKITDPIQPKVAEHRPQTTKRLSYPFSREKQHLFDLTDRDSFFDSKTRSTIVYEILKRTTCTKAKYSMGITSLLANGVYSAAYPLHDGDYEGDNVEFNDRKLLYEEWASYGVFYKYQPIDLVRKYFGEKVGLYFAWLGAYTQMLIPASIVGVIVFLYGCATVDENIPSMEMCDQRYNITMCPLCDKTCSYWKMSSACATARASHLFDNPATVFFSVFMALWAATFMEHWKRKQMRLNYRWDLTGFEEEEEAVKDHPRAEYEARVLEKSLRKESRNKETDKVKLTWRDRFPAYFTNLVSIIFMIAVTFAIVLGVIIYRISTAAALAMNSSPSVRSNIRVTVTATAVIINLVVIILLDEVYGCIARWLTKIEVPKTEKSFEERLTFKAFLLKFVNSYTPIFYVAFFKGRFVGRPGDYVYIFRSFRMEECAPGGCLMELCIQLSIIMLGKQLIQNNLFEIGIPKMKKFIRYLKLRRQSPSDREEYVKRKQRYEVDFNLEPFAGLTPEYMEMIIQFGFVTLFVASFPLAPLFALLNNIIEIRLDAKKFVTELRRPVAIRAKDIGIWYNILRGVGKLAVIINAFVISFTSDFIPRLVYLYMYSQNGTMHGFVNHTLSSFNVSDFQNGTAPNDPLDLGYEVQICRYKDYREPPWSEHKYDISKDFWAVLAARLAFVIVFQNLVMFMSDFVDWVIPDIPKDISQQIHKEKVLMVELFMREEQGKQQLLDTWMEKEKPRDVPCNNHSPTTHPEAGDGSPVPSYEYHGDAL
The assay can be described thus: Steady-state activation curve (conductance versus Vm, Boltzmann fit). Format: cell-based. Here is the method:
The voltage‐dependence of TMEM16A channels was assessed by constructing conductance (G) versus V m relationships in the presence of various [Ca^2+]i. A 1 s pre‐pulse applied to different V m (from −100 to +180 mV in 40 mV increments) was followed by a 0.5 s tail pulse to −60 mV. These pulses were elicited every 2 s from a holding V m of 0 mV. Tail currents were fitted with a single exponential function and the instantaneous tail current amplitude (I tail) estimated from extrapolation of the fit to the beginning of the tail pulse. G was calculated as G = I tail/(V m − E Cl), and normalized G (G/G max) was plotted against the V m of the pre‐pulse. The G versus V m relationships were fitted with the Boltzmann equation of the following form: (5) G/Gmax=1/1+expzgV0.5−VF/RT,
where z g is the number of gating charges moving through the applied transmembrane electric field during channel activation, and V 0.5 is the voltage at which the G is half‐maximal and depends on the conformational energy required for the channel to open.
To examine the possible effects of A9C on TMEM16A channel [Ca^2+]i‐sensitivity, the conductance versus V m relationships were assessed at various [Ca^2+]i in the absence or presence of various [A9C]ext (Figure 10 and Table 3). In the absence of extracellular A9C, V 0.5 (derived from fit with Equation (5)) shifted progressively to lower values as the [Ca^2+]i was increased from 300 to 1000 nM (Table 3). Extracellular A9C dramatically shifted the steady‐state activation curves to the left (Figure 10 and Table 3) to a similar extent for all [Ca^2+]i tested.

Assay [3] deals with human TMEM16A. Also noted: method as in Bradley et al. (2014). As to conditions: +80 mV, ref Bradley et al. (2014); cited from earlier work.
Setting [4] is: ~300 nM [Ca2+]i, 300 μM [A9C]ext.
Setting [5] is: ~300 nM [Ca2+]i, 1000 μM [A9C]ext.
Setting [6] is: ~600 nM [Ca2+]i, 300 μM [A9C]ext.
The mark [7] stands for this setting: ~600 nM [Ca2+]i, 1000 μM [A9C]ext.
[8] abbreviates: ~1000 nM [Ca2+]i, 300 μM [A9C]ext.
Where [9] appears, read: ~1000 nM [Ca2+]i, 1000 μM [A9C]ext.

For the compound `O=C(O)c1c2ccccc2cc2ccccc12` [A9C, Anthracene‐9‐carboxylic acid], in assay [1], the “current density in non-transfected HEK-293T cells” value is given as 3.7 ± 0.7 pA∙pF^−1. In addition, the “V 0.5 (Boltzmann fit)” value in assay [2] (setting [4]) is given as 124 ± 9 (n = 8) mV; in assay [2] (setting [5]) it was 89 ± 7 (n = 14) mV; in assay [2] (setting [6]) it was 45 ± 4 (n = 8) mV; in assay [2] (setting [7]) it was 18 ± 4 (n = 14) mV; in assay [2] (setting [8]), −15 ± 8 (n = 5) mV; in assay [2] (setting [9]) it was −22 ± 6 (n = 9) mV. Moreover, the “z g (Boltzmann fit)” value in assay [2] (setting [4]) was 0.7 ± 0.1 (n = 8); in assay [2] (setting [5]) it was 0.7 ± 0.1 (n = 14); in assay [2] (setting [6]) it was 0.7 ± 0.1 (n = 8); in assay [2] (setting [7]), 0.7 ± 0.1 (n = 14); in assay [2] (setting [8]) it was 0.9 ± 0.1 (n = 5); in assay [2] (setting [9]), 0.9 ± 0.1 (n = 9). In addition, in assay [3], the Ki is roughly 60 µM.
